From patent publication US7750135B2, “Molecular design of thermostable alcohol dehydrogenase for synthesis for chiral aromatic alcohols” (Board of Trustees of Michigan State University, priority 2007, dated 2010)
Read-outs that look alike come from different tables or passages of the source.

Legend:
wild-type (WT) TeSADH = target: T1, wild-type (WT) TeSADH (Thermoanaerobacter brockii, UniProt P14941, A186D); format: biochemical, Thermoanaerobacter ethanolicus; conditions: 60° C., 1 min, 50 mM Tris-HCl pH~6.5 (ketones) or pH~8.0 (alcohols), 0.4 mM NADP(H)
T1 construct: made in house; the wild-type adhB gene sat in plasmid pADHBIM1-kan
Procedure: (§1) J. 302:163-170), with (rac)-2-butanol, (rac)-1-phenethyl alcohol, (rac)-1-phenyl-2-propanol, (rac)-4-phenyl-2-butanol, and phenylacetone as substrates. Assays were done in the presence of 50 mM Tris-HCl [pH 8.0] and 0.4 mM NADP^+ (alcohol oxidation), or pH 6.5 and 0.4 mM NADPH (ketone reduction). Initial velocity was measured spectrophotometrically at 60° C. by following NADPH production (alcohol oxidation) or consumption (ketone reduction) at 340 nm for 1 min in a Varian Cary 300 UV/Vis spectrophotometer equipped with a Peltier heating system. The enzyme was preincubated for at least 5 min at 40° C. before being added to the assays. […] One unit of activity was defined as the amount of enzyme needed to consume or produce 1 μmol of NADPH per minute.

Y267G TeSADH = target: T2, Y267G TeSADH (Thermoanaerobacter brockii, UniProt P14941, A186D/Y267G); format: biochemical, Thermoanaerobacter ethanolicus; conditions: heat-treated crude extracts
T2 construct: His6 (C); made in house; host or cells: E. coli, pET24a(+); heat-treated crude extract
Procedure: as §1

Wild-type TeSADH [1] = target: T3, Wild-type TeSADH (Thermoanaerobacter brockii, UniProt P14941, A186D); format: biochemical, Thermoanaerobacter ethanolicus; set-up: made in house; the wild-type adhB gene sat in plasmid pADHBIM1-kan; conditions: heat-treated crude extracts
Procedure: as §1

Wild-type TeSADH [2] = target: T3, Wild-type TeSADH; conditions: 60° C., 1 min, 50 mM Tris-HCl pH ~8.0 (alcohols) or ~6.5 (ketones), 0.4 mM NADP(H)
Procedure: At least eight substrate concentrations were used for each data set and each set was performed in triplicate.

[3] = enzyme concentration estimated by SDS-PAGE

T1 sequence (P14941 whole entry A186D): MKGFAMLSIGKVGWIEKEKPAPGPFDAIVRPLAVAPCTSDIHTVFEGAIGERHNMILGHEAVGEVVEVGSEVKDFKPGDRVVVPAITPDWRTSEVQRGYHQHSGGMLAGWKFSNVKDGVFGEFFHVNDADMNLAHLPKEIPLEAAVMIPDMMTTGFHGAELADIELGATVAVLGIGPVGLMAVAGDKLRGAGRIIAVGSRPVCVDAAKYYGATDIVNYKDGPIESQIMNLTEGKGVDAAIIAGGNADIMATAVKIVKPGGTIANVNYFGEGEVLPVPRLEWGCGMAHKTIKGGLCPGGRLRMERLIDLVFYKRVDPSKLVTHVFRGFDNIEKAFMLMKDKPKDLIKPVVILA
T3 sequence (P14941 whole entry A186D): as above
T2 sequence (P14941 whole entry A186D/Y267G): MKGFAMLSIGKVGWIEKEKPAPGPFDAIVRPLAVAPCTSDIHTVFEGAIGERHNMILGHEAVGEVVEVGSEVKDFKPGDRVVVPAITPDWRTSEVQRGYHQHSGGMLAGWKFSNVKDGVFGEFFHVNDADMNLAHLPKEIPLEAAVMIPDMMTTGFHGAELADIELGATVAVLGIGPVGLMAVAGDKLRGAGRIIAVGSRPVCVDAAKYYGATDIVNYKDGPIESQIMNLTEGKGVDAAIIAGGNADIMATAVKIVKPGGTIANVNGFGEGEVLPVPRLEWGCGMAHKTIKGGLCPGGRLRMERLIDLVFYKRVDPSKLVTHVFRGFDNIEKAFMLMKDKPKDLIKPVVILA

Row | SMILES | Activity of Y267G TeSADH (Y267G TeSADH) | Specific activity, WT (wild-type (WT) TeSADH; substrate 7.5 mM) | further results
1 | CC(O)c1ccccc1 (racemic) [(rac)-1-Phenethyl alcohol] | no detectable activity |  | Specific activity, WT (wild-type (WT) TeSADH; substrate 10 mM): 0.15 U(umol)/mg protein
2 | CC(O)Cc1ccccc1 (racemic) [(rac)-1-phenyl-2-propanol] | no detectable activity |  | Specific activity, WT (wild-type (WT) TeSADH; substrate 10 mM): 0.14 U(umol)/mg protein
3 | CC(O)CCc1ccccc1 (racemic) [(rac)-4-Phenyl-2-butanol] | no detectable activity | 0.29 U(umol)/mg protein | 
4 | CC(=O)CCc1ccccc1 [1a, 4-Phenyl-2-butanone] |  | 5.94 U(umol)/mg protein | Activity of wild-type TeSADH (Wild-type TeSADH [1]): only slight activity
5 | CCC(C)O (stereo not drawn) [2-Butanol] |  | 45.27 U(umol)/mg protein | Specific activity of Y267G TeSADH (Y267G TeSADH; [3]): ~33 U/mg; Specific activity of wild-type TeSADH (Wild-type TeSADH [1]; [3]): ~41 U/mg; Vmax (app), Wild-type TeSADH (Wild-type TeSADH [2]): 37 U/mg; Km (Wild-type TeSADH [2]; read-out: Km (app), Wild-type TeSADH): 510 µM
6 | CC(=O)Cc1ccccc1 [7a, 1-phenyl-2-propanone] |  | 1.02 U(umol)/mg protein | 
7 | CC(=O)c1ccccc1 [Acetophenone] |  | 0.90 U(umol)/mg protein | 
